Results taken from article PMC4866733 (PLoS Genetics, 2016).

What was measured:
GacSH1 = biological target: T1, GacSH1 (Pseudomonas aeruginosa, UniProt G3XD98); conditions: 0.1 mM ATP, 5 mM MgCl2, 50 mM KCl, 50 mM Tris-HCl pH 7.6, 1 mM DTT, room temperature, 20 min; GacSD1 present; labelled compound
T1 construct: gene gacS

LadSH1D1 = biological target: T2, LadSH1D1 (Pseudomonas aeruginosa, UniProt Q9HX42); conditions: 0.1 mM ATP, 5 mM MgCl2, 50 mM KCl, 50 mM Tris-HCl pH 7.6, 1 mM DTT, room temperature, 20 min; labelled compound; phosphoryl transfer to H428
T2 construct: gene ladS
T2 sequence (Q9HX42 entry or part of it): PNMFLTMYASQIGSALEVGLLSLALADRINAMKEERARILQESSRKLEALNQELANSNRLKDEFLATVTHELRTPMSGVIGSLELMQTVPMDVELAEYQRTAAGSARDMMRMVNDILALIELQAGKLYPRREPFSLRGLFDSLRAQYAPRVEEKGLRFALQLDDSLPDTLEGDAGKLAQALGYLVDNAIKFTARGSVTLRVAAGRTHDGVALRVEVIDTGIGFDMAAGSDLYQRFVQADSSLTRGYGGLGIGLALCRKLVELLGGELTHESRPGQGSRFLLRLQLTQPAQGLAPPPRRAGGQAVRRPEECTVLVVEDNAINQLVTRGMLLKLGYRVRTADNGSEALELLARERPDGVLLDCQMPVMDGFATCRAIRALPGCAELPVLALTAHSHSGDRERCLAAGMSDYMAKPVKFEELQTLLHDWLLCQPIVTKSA

T1 sequence (G3XD98 entry or part of it): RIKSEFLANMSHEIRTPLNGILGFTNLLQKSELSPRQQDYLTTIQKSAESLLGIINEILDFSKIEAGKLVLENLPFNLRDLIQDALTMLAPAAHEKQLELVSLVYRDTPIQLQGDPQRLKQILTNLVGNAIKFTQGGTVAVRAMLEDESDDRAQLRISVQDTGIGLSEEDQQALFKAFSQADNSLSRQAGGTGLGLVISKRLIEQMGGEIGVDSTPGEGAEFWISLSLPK

SMILES: Nc1ncnc2c1ncn2[C@@H]1O[C@H](COP(=O)(O)OP(=O)(O)OP(=O)(O)O)[C@@H](O)[C@H]1O [[γ-^32P]ATP]
- autophosphorylation and phosphotransfer to GacSD1, SDS-PAGE and autoradiography (GacSH1): between the H1 domain of GacS and the D1 domain of GacS
- autophosphorylation, SDS-PAGE and autoradiography (LadSH1D1): LadSH1D1 and LadSH1D1D→A proteins were found in an autophosphorylated form
